Measurements from patent publication US20100119483A1, “PEPTIDE VIRAL ENTRY INHIBITORS” (Schering Corporation, priority 2004, published 2010).
Values joined by “and” are separate entries in the source; they are usually repeats but may differ in a detail not shown here. Equal values may be shown once.

Columns and labels:
[1] = test system: amphotropic murine leukemia virus; assay: AMLV pseudotyped virus entry counter-screen, same infection protocol; assay type: cell-based; details: for luciferase units, AMLV entry: duplicates; for AMLVpp % inh: peptide library screen, cell entry inhibition vs uninhibited control
Description: Infection of hepatoma cell lines with HCV pseudotype particles and screen for inhibitory peptides. The hepatoma cells, Huh7, was seeded at 8000 cells in 90 ul medium in 96-well plate. In the case of the inhibitor screen, the inhibitor was incubated with cells for one hour at 37° C. and then 50 ul viral supernatant was added to the cells 24 hours after seeding. The viral stock was pre-tittered and diluted to yield approximately 10,000 to 20,000 RLU. The cells were incubated at 37° C. with 5% CO2 for additional 72 hours and were harvested for luciferase assay. Peptide stocks were prepared in 100% DMSO at 10 mg/ml and were first screened at 100 ug/ml and then a dose responsive curve was generated with 10 points 3-fold titration starting from 100 ug/ml.
The specificity of the peptides were counter-screened with AMLV and HIV pseudotyped viruses using the same infection protocol.

HCV pseudoparticles = assay: HCV pseudoparticle (HCVpp) entry assay in Huh7 hepatoma cells, luciferase readout; assay type: cell-based, hepatitis C virus; details: for luciferase units, HCV entry: duplicates; for % of control at ~30 uM: percentage of hepatitis C virus cellular entry at 30 μM peptide vs uninhibited control; for HCVpp % inh: peptide library screen, first screened at 100 ug/ml, cell entry inhibition vs uninhibited control
Summary of the method: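 Huh7 cells were pre-treated with peptide for 1 h at 37 °C before exposure to HCV E1/E2-pseudotyped HIV luciferase particles made in 293T cells, followed by 72 h culture and luciferase readout. Peptides were tested at 10 points, 3-fold, from 100 ug/ml; particles lacking envelope served as non-specific entry control.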

[2] = 0.01371742 uM of peptide (three lines)
[3] = 0.1 nM of peptide (printed for three rows), two values per peptide and row
[4] = 0.3 nM of peptide, two values per peptide
[5] = 1 nM of peptide, two values per peptide
[6] = 3 nM of peptide, two values per peptide
[7] = 10 nM of peptide, two values per peptide
[8] = 30 nM of peptide, two values per peptide
[9] = 100 nM of peptide, two values per peptide
[10] = 300 nM of peptide, two values per peptide

## A-I-K-W-E-Y-V-L-L-L-F-L-L [SEQ ID NO: 86]
[1]; [2]
  luciferase units, AMLV entry: 42295 luciferase units and 44556 luciferase units and 43059 luciferase units and 48854 luciferase units and 37783 luciferase units and 49462 luciferase units
[1]; 0.04115226 uM of peptide
  luciferase units, AMLV entry: 42084 luciferase units and 47952 luciferase units
[1]; 0.1234568 uM of peptide
  luciferase units, AMLV entry: 37163 luciferase units and 47412 luciferase units
[1]; 0.3703704 uM of peptide
  luciferase units, AMLV entry: 43543 luciferase units and 47987 luciferase units
[1]; 1.111111 uM of peptide
  luciferase units, AMLV entry: 40296 luciferase units and 43593 luciferase units
[1]; 3.333333 uM of peptide
  luciferase units, AMLV entry: 53350 luciferase units and 39047 luciferase units
[1]; 10 uM of peptide
  luciferase units, AMLV entry: 70573 luciferase units and 72462 luciferase units
[1]; 30 uM of peptide
  luciferase units, AMLV entry: 76174 luciferase units and 71333 luciferase units
HCV pseudoparticles; [3]
  % control (HCVpp entry), alanine scanning: 86 % control and 90 % control and 87 % control and 103 % control and 108 % control
HCV pseudoparticles; [4]
  % control (HCVpp entry), alanine scanning: 96 % control and 133 % control
HCV pseudoparticles; [5]
  % control (HCVpp entry), alanine scanning: 80 % control and 102 % control
HCV pseudoparticles; [6]
  % control (HCVpp entry), alanine scanning: 90 % control and 118 % control
HCV pseudoparticles; [7]
  % control (HCVpp entry), alanine scanning: 69 % control and 67 % control
HCV pseudoparticles; [2]
  luciferase units, HCV entry: 10981 luciferase units and 12701 luciferase units and 17159 luciferase units and 18427 luciferase units and 19121 luciferase units and 16287 luciferase units
HCV pseudoparticles; [8]
  % control (HCVpp entry), alanine scanning: 59 % control and 60 % control
HCV pseudoparticles; 0.04115226 uM of peptide
  luciferase units, HCV entry: 8349 luciferase units and 8612 luciferase units
HCV pseudoparticles; [9]
  % control (HCVpp entry), alanine scanning: 48 % control and 33 % control
HCV pseudoparticles; 0.1234568 uM of peptide
  luciferase units, HCV entry: 6445 luciferase units and 3869 luciferase units
HCV pseudoparticles; [10]
  % control (HCVpp entry), alanine scanning: 25 % control and 30 % control
HCV pseudoparticles; 0.3703704 uM of peptide
  luciferase units, HCV entry: 5748 luciferase units and 3127 luciferase units
HCV pseudoparticles; 1.111111 uM of peptide
  luciferase units, HCV entry: 3652 luciferase units and 3574 luciferase units
HCV pseudoparticles; 3.333333 uM of peptide
  luciferase units, HCV entry: 2746 luciferase units and 2356 luciferase units
HCV pseudoparticles; 10000 nM of peptide, two values per peptide
  % control (HCVpp entry), alanine scanning: 27 % control and 25 % control
HCV pseudoparticles; 30 uM of peptide
  luciferase units, HCV entry: 1899 luciferase units and 1645 luciferase units
HCV pseudoparticles; 30000 nM of peptide, two values per peptide
  % control (HCVpp entry), alanine scanning: 15 % control and 27 % control
HCV pseudoparticles
  % of control at ~30 uM: 13%

## A-I-K-W-E-Y-V-L-L-L-F-L-L [SEQ ID NO: 100]
[1]; 0.04115226 uM of peptide
  luciferase units, AMLV entry: 39784 luciferase units and 45324 luciferase units
[1]; 0.1234568 uM of peptide
  luciferase units, AMLV entry: 46954 luciferase units and 44234 luciferase units
[1]; 0.3703704 uM of peptide
  luciferase units, AMLV entry: 42008 luciferase units and 39907 luciferase units
[1]; 1.111111 uM of peptide
  luciferase units, AMLV entry: 45723 luciferase units and 43633 luciferase units
[1]; 3.333333 uM of peptide
  luciferase units, AMLV entry: 70934 luciferase units and 59407 luciferase units
[1]; 10 uM of peptide
  luciferase units, AMLV entry: 135633 luciferase units and 74847 luciferase units
[1]; 30 uM of peptide
  luciferase units, AMLV entry: 76883 luciferase units and 56072 luciferase units
HCV pseudoparticles; [3]
  % control (HCVpp entry), lysine scanning: 110 % control and 85 % control and 115 % control and 83 % control and 92 % control and 111 % control
HCV pseudoparticles; [4]
  % control (HCVpp entry), lysine scanning: 88 % control and 75 % control
HCV pseudoparticles; [5]
  % control (HCVpp entry), lysine scanning: 76 % control and 68 % control
HCV pseudoparticles; [6]
  % control (HCVpp entry), lysine scanning: 61 % control and 83 % control
HCV pseudoparticles; [7]
  % control (HCVpp entry), lysine scanning: 62 % control and 58 % control
HCV pseudoparticles; [2]
  luciferase units, HCV entry: 9526 luciferase units and 11368 luciferase units and 13637 luciferase units and 13231 luciferase units and 14358 luciferase units and 15831 luciferase units
HCV pseudoparticles; [8]
  % control (HCVpp entry), lysine scanning: 53 % control and 44 % control
HCV pseudoparticles; 0.04115226 uM of peptide
  luciferase units, HCV entry: 7066 luciferase units and 7585 luciferase units
HCV pseudoparticles; [9]
  % control (HCVpp entry), lysine scanning: 31 % control and 19 % control
HCV pseudoparticles; 0.1234568 uM of peptide
  luciferase units, HCV entry: 4241 luciferase units and 3590 luciferase units
HCV pseudoparticles; [10]
  % control (HCVpp entry), lysine scanning: 32 % control and 29 % control
HCV pseudoparticles; 0.3703704 uM of peptide
  luciferase units, HCV entry: 4161 luciferase units and 2767 luciferase units
HCV pseudoparticles; 1.111111 uM of peptide
  luciferase units, HCV entry: 3041 luciferase units and 2870 luciferase units
HCV pseudoparticles; 3.333333 uM of peptide
  luciferase units, HCV entry: 4131 luciferase units and 3158 luciferase units
HCV pseudoparticles; 10 uM of peptide
  luciferase units, HCV entry: 1538 luciferase units and 1360 luciferase units
HCV pseudoparticles; 30 uM of peptide
  luciferase units, HCV entry: 1262 luciferase units and 1073 luciferase units
HCV pseudoparticles
  % of control at ~30 uM: 6%

## A-L-T-P-T-L-A-A-R-N-A-S-V-P-T-T [SEQ ID NO: 10]
[1]
  AMLVpp % inh: 1%
HCV pseudoparticles
  HCVpp % inh: 53%

## A-Q-V-C-G-P-V-Y-C-F-T-P-S-P-V-V [SEQ ID NO: 47]
[1]
  AMLVpp % inh: −8%
HCV pseudoparticles
  HCVpp % inh: 40%

## A-R-N-A-S-V-P-T-T-T-I-R-R-H-V-D [SEQ ID NO: 11]
[1]
  AMLVpp % inh: 24%
HCV pseudoparticles
  HCVpp % inh: −26%

## A-Y-Y-S-W-V-G-N-W-A-K-V-L-I-V-M [SEQ ID NO: 27]
[1]
  AMLVpp % inh: −2%
HCV pseudoparticles
  HCVpp % inh: 39%

## C-N-C-S-I-Y-P-G-H-V-T-G-H-R-M-A [SEQ ID NO: 19]
[1]
  AMLVpp % inh: 26%
HCV pseudoparticles
  HCVpp % inh: 49%

## C-W-H-Y-A-P-R-P-C-G-I-V-P-A-A-Q [SEQ ID NO: 45]
[1]
  AMLVpp % inh: −8%
HCV pseudoparticles
  HCVpp % inh: 63%

## D-C-F-R-K-H-P-E-A-T-Y-T-K-C-G-S [SEQ ID NO: 59]
[1]
  AMLVpp % inh: −14%
HCV pseudoparticles
  HCVpp % inh: 26%

## D-C-S-N-A-S-I-V-Y-E-A-A-D-M-I-M [SEQ ID NO: 5]
[1]
  AMLVpp % inh: −2%
HCV pseudoparticles
  HCVpp % inh: −4%

## D-M-V-A-G-A-H-W-G-V-L-A-G-L-A-Y [SEQ ID NO: 25]
[1]
  AMLVpp % inh: 14%
HCV pseudoparticles
  HCVpp % inh: 27%

## D-V-L-L-L-N-N-T-R-P-P-Q-G-N-W-F [SEQ ID NO: 52]
[1]
  AMLVpp % inh: 16%
HCV pseudoparticles
  HCVpp % inh: 10%

## E-A-T-Y-T-K-C-G-S-G-P-W-L-T-P-R (EATYTKCGSGPWLTPR; HCV peptide) [SEQ ID NO: 60]
[1]
  AMLVpp % inh: 17%
HCV pseudoparticles
  HCVpp % inh: 13%

## E-L-S-P-L-L-L-S-T-T-E-W-Q-V-L-P [SEQ ID NO: 70]
[1]
  AMLVpp % inh: 44%
HCV pseudoparticles
  HCVpp % inh: 10%

## E-Y-V-L-L-L-F-L-L-L-A-D-A-R-V-C [SEQ ID NO: 78]
[1]
  AMLVpp % inh: 34%
HCV pseudoparticles
  HCVpp % inh: 38%

## F-A-Q-G-W-G-P-I-T-Y-N-E-S-H-S-S [SEQ ID NO: 42]
[1]
  AMLVpp % inh: 15%
HCV pseudoparticles
  HCVpp % inh: 49%

## F-L-A-A-L-F-Y-V-H-K-F-N-S-S-G-C [SEQ ID NO: 38]
[1]
  AMLVpp % inh: −44%
HCV pseudoparticles
  HCVpp % inh: 23%

## G-C-P-E-R-M-A-S-C-S-P-I-D-A-F-A [SEQ ID NO: 40]
[1]
  AMLVpp % inh: −4%
HCV pseudoparticles
  HCVpp % inh: 35%

## G-H-V-T-G-H-R-M-A-W-D-M-M-M-N-W [SEQ ID NO: 20]
[1]
  AMLVpp % inh: 6%
HCV pseudoparticles
  HCVpp % inh: 43%

## G-S-G-P-W-L-T-P-R-C-L-V-H-Y-P-Y (GSGPWLTPRCLVHYPY; HCV peptide) [SEQ ID NO: 61]
[1]
  AMLVpp % inh: −8%
HCV pseudoparticles
  HCVpp % inh: −15%

## G-V-Y-H-V-T-N-D-C-S-N-A-S-I-V-Y [SEQ ID NO: 4]
[1]
  AMLVpp % inh: −6%
HCV pseudoparticles
  HCVpp % inh: −23%

## I-F-K-V-R-M-Y-V-G-G-V-E-H-R-L-E (IFKVRMYVGGVEHRLE; HCV peptide) [SEQ ID NO: 65]
[1]
  AMLVpp % inh: −62%
HCV pseudoparticles
  HCVpp % inh: 19%

## I-M-H-T-P-G-C-V-P-C-V-R-E-N-N-S [SEQ ID NO: 7]
[1]
  AMLVpp % inh: −4%
HCV pseudoparticles
  HCVpp % inh: 3%

## I-T-Y-N-E-S-H-S-S-D-Q-R-P-Y-C-W [SEQ ID NO: 43]
[1]
  AMLVpp % inh: 17%
HCV pseudoparticles
  HCVpp % inh: −13%

## K-T-L-T-C-P-T-D-C-F-R-K-H-P-E-A [SEQ ID NO: 58]
[1]
  AMLVpp % inh: 13%
HCV pseudoparticles
  HCVpp % inh: 50%

## L-E-A-A-C-N-W-T-R-G-E-R-C-N-L-E [SEQ ID NO: 67]
[1]
  AMLVpp % inh: 37%
HCV pseudoparticles
  HCVpp % inh: 26%
